Assay results: patent US20230097975A1, “BORTEZOMIB COMPOSITIONS” (MAIA Pharmaceuticals, Inc., priority 2021, published 2023)
In brackets after ≈: the same amount, converted by molar mass.

Experiments:
[1] = cited from earlier work
[2] = Estimated solubility of bortezomib in select non-aqueous solvents (visual, incremental solvent addition); format: physicochemical
Protocol: The appearance of the solution was recorded.

| Observation ([2]; N-methyl pyrrolidone (NMP)) | Observation (solvent needed to dissolve approx. 25 mg) ([2]; alcohol (ethanol)) | Observation ([2]; benzyl alcohol) | Observation ([2]; dimethyl sulfoxide (DMSO)) | Estimated Solubility ([2]; in benzyl alcohol) | Estimated Solubility ([2]; in dimethyl sulfoxide (DMSO)) | Observation (solvent needed to dissolve approx. 25 mg) ([2]; propylene glycol) | Compound | Solubility in water [1] | Observation ([2]; glycerol) | Observation ([2]; polyethylene glycol 400) |
| --- | --- | --- | --- | --- | --- | --- | --- | --- | --- | --- |
| – | – | – | – | – | – | – | OCc1ccccc1 [benzyl alcohol] | 35 mg/mL (≈ 324 mM) | – | – |
| Completely dissolved after 1 mL | Approximately 5.5 mL of solvent needed | Completely dissolved after 0.5 mL | Completely dissolved after 0.5 mL | > 50 mg/mL | > 50 mg/mL | Approximately 7 mL of solvent needed | CC(C)C[C@H](NC(=O)[C@H](Cc1ccccc1)NC(=O)c1cnccn1)B(O)O [Bortezomib, [(1R)-3-methyl-1-[[(2S)-1-oxo-3-phenyl-2-[(pyrazinylcarbonyl)amino]propyl]amino]butyl] boronic acid] | – | No significant dissolution observed up to 10 mL | No significant dissolution observed up to 10 mL |
